Assay results published in the supplement of paper PMC10307832.

Experiments:
Test in all cases: relative viability (nuclei count vs DMSO), 5 days (fraction); higher = more cells survive
Selisistat + Foretinib = compound: C1CC(C2=C(C1)C3=C(N2)C=CC(=C3)Cl)C(=O)N [Selisistat] + COc1cc2c(Oc3ccc(NC(=O)C4(C(=O)Nc5ccc(F)cc5)CC4)cc3F)ccnc2cc1OCCCN1CCOCC1 [Foretinib] (partner 0.25 µM)
How it was run: (§1)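 Values are medians from duplicate plates. Each reflects relative viability, defined as the nuclei count of treated wells over that of vehicle wells. Lung cancer cell lines in 1536-well plates were pin-tool dosed one day after seeding with one drug alone or with a fixed anchor-drug dose plus five library-drug doses (not always all listed) in √10 steps, then fixed, stained and imaged at 4× after 5 days.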

Selisistat + Crizotinib = compound: C1CC(C2=C(C1)C3=C(N2)C=CC(=C3)Cl)C(=O)N [Selisistat] + C[C@@H](Oc1cc(-c2cnn(C3CCNCC3)c2)cnc1N)c1c(Cl)ccc(F)c1Cl [Crizotinib] (partner 1 µM)
How it was run: as §1

Selisistat + Linsitinib = compound: C1CC(C2=C(C1)C3=C(N2)C=CC(=C3)Cl)C(=O)N [Selisistat] + C[C@]1(O)C[C@@H](c2nc(-c3ccc4ccc(-c5ccccc5)nc4c3)c3c(N)nccn32)C1 [Linsitinib] (partner 1 µM)
How it was run: as §1

Serdemetan + Pictilisib = compound: c1ccc2c(CCNc3ccc(Nc4ccncc4)cc3)c[nH]c2c1 [Serdemetan] + CS(=O)(=O)N1CCN(Cc2cc3nc(-c4cccc5[nH]ncc45)nc(N4CCOCC4)c3s2)CC1 [Pictilisib] (partner 1 µM)
How it was run: as §1

NCI-H441
relative viability (Selisistat + Foretinib; first compound 0.4 µM): 0.936 | relative viability (Selisistat + Foretinib; first compound 1.265 µM): 1.12 | relative viability (Selisistat + Foretinib; first compound 4 µM): 0.961 | relative viability (Selisistat + Foretinib; first compound 12.65 µM): 0.951 | relative viability (Selisistat + Foretinib; first compound 40 µM): 0.817 | relative viability (Selisistat + Crizotinib; first compound 0.4 µM): 0.754 | relative viability (Selisistat + Crizotinib; first compound 1.265 µM): 0.652 | relative viability (Selisistat + Crizotinib; first compound 4 µM): 0.915 | relative viability (Selisistat + Crizotinib; first compound 12.65 µM): 0.673 | relative viability (Selisistat + Crizotinib; first compound 40 µM): 0.806 | relative viability (Selisistat + Linsitinib; first compound 0.4 µM): 0.648 | relative viability (Selisistat + Linsitinib; first compound 1.265 µM): 0.639 | relative viability (Selisistat + Linsitinib; first compound 4 µM): 0.502 | relative viability (Selisistat + Linsitinib; first compound 12.65 µM): 0.448 | relative viability (Selisistat + Linsitinib; first compound 40 µM): 0.554 | relative viability (Serdemetan + Pictilisib; first compound 0.04 µM): 0.486 | relative viability (Serdemetan + Pictilisib; first compound 0.1265 µM): 0.481 | relative viability (Serdemetan + Pictilisib; first compound 0.4 µM): 0.418 | relative viability (Serdemetan + Pictilisib; first compound 1.265 µM): 0.277 | relative viability (Serdemetan + Pictilisib; first compound 4 µM): 0.384

LCLC-103H
relative viability (Selisistat + Foretinib; first compound 0.4 µM): 0.691 | relative viability (Selisistat + Foretinib; first compound 1.265 µM): 0.851 | relative viability (Selisistat + Foretinib; first compound 4 µM): 0.748 | relative viability (Selisistat + Foretinib; first compound 12.65 µM): 0.683 | relative viability (Selisistat + Foretinib; first compound 40 µM): 0.805 | relative viability (Selisistat + Crizotinib; first compound 0.4 µM): 1.08 | relative viability (Selisistat + Crizotinib; first compound 1.265 µM): 0.991 | relative viability (Selisistat + Crizotinib; first compound 4 µM): 0.996 | relative viability (Selisistat + Crizotinib; first compound 12.65 µM): 0.999 | relative viability (Selisistat + Crizotinib; first compound 40 µM): 1.07 | relative viability (Selisistat + Linsitinib; first compound 0.4 µM): 1.13 | relative viability (Selisistat + Linsitinib; first compound 1.265 µM): 1.15 | relative viability (Selisistat + Linsitinib; first compound 4 µM): 1.07 | relative viability (Selisistat + Linsitinib; first compound 12.65 µM): 1.03 | relative viability (Selisistat + Linsitinib; first compound 40 µM): 1.01 | relative viability (Serdemetan + Pictilisib; first compound 0.04 µM): 0.629 | relative viability (Serdemetan + Pictilisib; first compound 0.1265 µM): 0.665 | relative viability (Serdemetan + Pictilisib; first compound 0.4 µM): 0.619 | relative viability (Serdemetan + Pictilisib; first compound 1.265 µM): 0.594 | relative viability (Serdemetan + Pictilisib; first compound 4 µM): 0.611

LCLC-97TM1
relative viability (Selisistat + Foretinib; first compound 0.4 µM): 0.861 | relative viability (Selisistat + Foretinib; first compound 1.265 µM): 0.849 | relative viability (Selisistat + Foretinib; first compound 12.65 µM): 0.907 | relative viability (Selisistat + Foretinib; first compound 40 µM): 0.862 | relative viability (Selisistat + Crizotinib; first compound 0.4 µM): 0.327 | relative viability (Selisistat + Crizotinib; first compound 1.265 µM): 0.308 | relative viability (Selisistat + Crizotinib; first compound 4 µM): 0.637 | relative viability (Selisistat + Crizotinib; first compound 12.65 µM): 0.393 | relative viability (Selisistat + Crizotinib; first compound 40 µM): 0.498 | relative viability (Selisistat + Linsitinib; first compound 0.4 µM): 0.166 | relative viability (Selisistat + Linsitinib; first compound 1.265 µM): 0.156 | relative viability (Selisistat + Linsitinib; first compound 4 µM): 0.193 | relative viability (Selisistat + Linsitinib; first compound 12.65 µM): 0.167 | relative viability (Selisistat + Linsitinib; first compound 40 µM): 0.245 | relative viability (Serdemetan + Pictilisib; first compound 0.04 µM): 0.214 | relative viability (Serdemetan + Pictilisib; first compound 0.1265 µM): 0.22 | relative viability (Serdemetan + Pictilisib; first compound 0.4 µM): 0.183 | relative viability (Serdemetan + Pictilisib; first compound 1.265 µM): 0.143 | relative viability (Serdemetan + Pictilisib; first compound 4 µM): 0.124

NCI-H727
relative viability (Selisistat + Foretinib; first compound 0.4 µM): 0.883 | relative viability (Selisistat + Foretinib; first compound 1.265 µM): 1.05 | relative viability (Selisistat + Foretinib; first compound 12.65 µM): 1.04 | relative viability (Selisistat + Foretinib; first compound 40 µM): 0.872 | relative viability (Selisistat + Crizotinib; first compound 0.4 µM): 0.823 | relative viability (Selisistat + Crizotinib; first compound 1.265 µM): 0.816 | relative viability (Selisistat + Crizotinib; first compound 40 µM): 0.729 | relative viability (Selisistat + Linsitinib; first compound 0.4 µM): 0.297 | relative viability (Selisistat + Linsitinib; first compound 1.265 µM): 0.292 | relative viability (Selisistat + Linsitinib; first compound 40 µM): 0.395 | relative viability (Serdemetan + Pictilisib; first compound 0.04 µM): 0.327 | relative viability (Serdemetan + Pictilisib; first compound 0.1265 µM): 0.421 | relative viability (Serdemetan + Pictilisib; first compound 0.4 µM): 0.412 | relative viability (Serdemetan + Pictilisib; first compound 1.265 µM): 0.346 | relative viability (Serdemetan + Pictilisib; first compound 4 µM): 0.299

NCI-H1355
relative viability (Selisistat + Foretinib; first compound 0.4 µM): 0.933 | relative viability (Selisistat + Foretinib; first compound 1.265 µM): 0.991 | relative viability (Selisistat + Foretinib; first compound 4 µM): 0.955 | relative viability (Selisistat + Foretinib; first compound 12.65 µM): 0.99 | relative viability (Selisistat + Foretinib; first compound 40 µM): 0.993 | relative viability (Selisistat + Crizotinib; first compound 0.4 µM): 1.01 | relative viability (Selisistat + Crizotinib; first compound 1.265 µM): 1.08 | relative viability (Selisistat + Crizotinib; first compound 12.65 µM): 1.08 | relative viability (Selisistat + Crizotinib; first compound 40 µM): 1.21 | relative viability (Selisistat + Linsitinib; first compound 0.4 µM): 0.903 | relative viability (Selisistat + Linsitinib; first compound 1.265 µM): 0.838 | relative viability (Selisistat + Linsitinib; first compound 12.65 µM): 0.974 | relative viability (Selisistat + Linsitinib; first compound 40 µM): 0.996 | relative viability (Serdemetan + Pictilisib; first compound 0.04 µM): 0.456 | relative viability (Serdemetan + Pictilisib; first compound 0.1265 µM): 0.491 | relative viability (Serdemetan + Pictilisib; first compound 0.4 µM): 0.405 | relative viability (Serdemetan + Pictilisib; first compound 1.265 µM): 0.445 | relative viability (Serdemetan + Pictilisib; first compound 4 µM): 0.435

HOP-62
relative viability (Selisistat + Foretinib; first compound 0.4 µM): 1.09 | relative viability (Selisistat + Foretinib; first compound 1.265 µM): 1.19 | relative viability (Selisistat + Foretinib; first compound 4 µM): 1.17 | relative viability (Selisistat + Foretinib; first compound 12.65 µM): 0.97 | relative viability (Selisistat + Foretinib; first compound 40 µM): 1.12 | relative viability (Selisistat + Crizotinib; first compound 0.4 µM): 0.682 | relative viability (Selisistat + Crizotinib; first compound 1.265 µM): 0.957 | relative viability (Selisistat + Crizotinib; first compound 4 µM): 1.09 | relative viability (Selisistat + Crizotinib; first compound 12.65 µM): 0.801 | relative viability (Selisistat + Crizotinib; first compound 40 µM): 0.988 | relative viability (Selisistat + Linsitinib; first compound 0.4 µM): 1.04 | relative viability (Selisistat + Linsitinib; first compound 1.265 µM): 1.18 | relative viability (Selisistat + Linsitinib; first compound 4 µM): 1.07 | relative viability (Selisistat + Linsitinib; first compound 12.65 µM): 0.978 | relative viability (Selisistat + Linsitinib; first compound 40 µM): 0.94 | relative viability (Serdemetan + Pictilisib; first compound 0.04 µM): 0.821 | relative viability (Serdemetan + Pictilisib; first compound 0.1265 µM): 0.798 | relative viability (Serdemetan + Pictilisib; first compound 0.4 µM): 0.782 | relative viability (Serdemetan + Pictilisib; first compound 1.265 µM): 0.604 | relative viability (Serdemetan + Pictilisib; first compound 4 µM): 0.657

NCI-H2085
relative viability (Selisistat + Foretinib; first compound 0.4 µM): 0.971 | relative viability (Selisistat + Foretinib; first compound 1.265 µM): 0.98 | relative viability (Selisistat + Foretinib; first compound 4 µM): 0.873 | relative viability (Selisistat + Foretinib; first compound 12.65 µM): 0.881 | relative viability (Selisistat + Foretinib; first compound 40 µM): 0.884 | relative viability (Selisistat + Crizotinib; first compound 0.4 µM): 0.893 | relative viability (Selisistat + Crizotinib; first compound 1.265 µM): 0.702 | relative viability (Selisistat + Crizotinib; first compound 4 µM): 0.886 | relative viability (Selisistat + Crizotinib; first compound 12.65 µM): 0.864 | relative viability (Selisistat + Crizotinib; first compound 40 µM): 0.951 | relative viability (Selisistat + Linsitinib; first compound 0.4 µM): 0.985 | relative viability (Selisistat + Linsitinib; first compound 1.265 µM): 1 | relative viability (Selisistat + Linsitinib; first compound 4 µM): 0.795 | relative viability (Selisistat + Linsitinib; first compound 12.65 µM): 0.803 | relative viability (Selisistat + Linsitinib; first compound 40 µM): 0.902 | relative viability (Serdemetan + Pictilisib; first compound 0.04 µM): 0.486 | relative viability (Serdemetan + Pictilisib; first compound 0.1265 µM): 0.516 | relative viability (Serdemetan + Pictilisib; first compound 0.4 µM): 0.483 | relative viability (Serdemetan + Pictilisib; first compound 1.265 µM): 0.357 | relative viability (Serdemetan + Pictilisib; first compound 4 µM): 0.438
